According to paper PMC7402526, “An in vitro quantitative systems pharmacology approach for deconvolving mechanisms of drug-induced, multilineage cytopenias” (PLoS Computational Biology, 2020):

Legend:
granulocytes (Gran-lin) = assay: MLTA, Gran: concentration-response and QSP model fit; format: cell-based, human; conditions: Homo sapiens, 144 h
Procedure, shortened: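 Six-day flow cytometry counts, bead-normalized and expressed relative to the mean of six vehicle wells, underlie each value. Cells were primary human bone marrow CD34+ cells cultured in SFEM II with cytokines promoting multi-lineage differentiation and self-renewal.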

[1] = tested on: lymphocyte progenitors (LymP); assay: MLTA, LymP: concentration-response and QSP model fit; format: cell-based, human; conditions: Homo sapiens, Lymphocyte, 144 h
Procedure, shortened: (§1)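 Freeze-thawed primary human bone marrow CD34+ cells were cultured 6 days in SFEM II with a cytokine cocktail, drug added on day 0. Subsets were counted by 17-parameter flow cytometry with TruCount beads and normalized to vehicle wells. An Emax QSP model (Emax 0–2, L1 regularization) was fitted to these counts.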

[2] = tested on: total viable cells (totalViableCells); assay: MLTA, total live cells concentration-response; format: cell-based; conditions: Homo sapiens, 144 h, 6 days, normalized to vehicle control, read-out: total_live normalized cell count
Procedure: (§2) A custom optimized cytokine cocktail was developed using commercially available cytokines (Peprotech, New Jersey) to facilitate simultaneous multi-lineage differentiation and self-renewal of freeze-thawed primary human bone marrow-derived CD34+ cells in SFEM II media (cells and media from StemCell Technologies, Vancouver). Cultures were carried out in ultra-low attachment 96-well plates (Corning, New York) with test article added on day 0 and cultured at 37°C, 85% relative humidity, and 5% CO2 for six days before interrogating drug impact via 17-parameter flow cytometry.
(§3) The flow cytometry panel used to define hematopoietic subsets was composed of CD34-PECy7, CD90-PECY5, CD38-AF488, CD371-PE, CD45Ra-BV421, CD14-BV605, CD42b-AF647, CD10-PEDazzle594, CD235a-PerCPCy5.5 (BioLegend, California), CD15-BUV395, CD41a-APCH7, CD71-BV786 (BD Biosciences, California), and DAPI for dead cell exclusion (ThermoFisher, California). In short, Day 6 cells were harvested, FcR-blocked (FcR binding inhibitor, ThermoFisher), surface-stained, then analyzed in a buffer containing TruCount Control Beads using a BD LSR Fortessa SORP fitted with a high-throughput sampler (BD Biosciences, California). Data was analyzed in Diva 6.0.2 and exported to CSV where after all cell data was transformed to cell per mL then normalized on a per-donor basis to untreated control wells to determine drug impact.
(§4) Donor material was collected and cultured as described above. The number of replicate donor samples per drug ranged from 2–7 and varied per drug (S1 Table). Drug treatment was added at time 0 and cells were maintained in culture for 6 days. Concentrations tested for each drug compound are contained in S1 Table. Concentrations were selected to span a range that is clinically useful. Following treatment, cell populations were measured using flow cytometry. We extracted cell counts from flow cytometry data, normalized to bead counts, and corrected for well volume.
(§5) Each well was normalized to the average of six vehicle control wells. For drugs that were tested across multiple runs of the assay, vehicle-normalized donor data were pooled, and we used the average of these pooled data for further modeling. Normalized data used as model inputs are included in S1 Table.

[3] = tested on: multi-potent progenitors (MPPs); assay: MLTA, MPPs: concentration-response and QSP model fit; format: cell-based, human; conditions: Homo sapiens, 144 h
Procedure, shortened: as §1

[4] = tested on: late erythroid cells (Eryth II); assay: MLTA, ErythII: concentration-response and QSP model fit; format: cell-based, human; conditions: Homo sapiens, 144 h
Procedure, shortened: as §1

[5] = tested on: total dead cells (totalDeadCells); assay: MLTA, total dead cells concentration-response; format: cell-based; conditions: Homo sapiens, 144 h, 6 days, normalized to vehicle control, read-out: total_dead normalized cell count
Procedure: as §2, §3, §4, §5

[6] = tested on: granulocyte-macrophage progenitor (GMPs); assay: MLTA, GMPs: concentration-response and QSP model fit; format: cell-based, human; conditions: Homo sapiens, 144 h
Procedure, shortened: as §1

MK cells (MK-lin) = assay: MLTA, MK: concentration-response and QSP model fit; format: cell-based, human; conditions: Homo sapiens, 144 h
Procedure, shortened: as §1

[7] = QSP model fit of 6-day MLTA data

CN(C)C(=O)c1cc2cnc(Nc3ccc(N4CCNCC4)cn3)nc2n1C1CCCC1 [ribociclib]
activity at 0.0002 µM (granulocytes (Gran-lin); dose 0.2 nM, 6 days, normalized to vehicle control, read-out: Gran normalized cell count): 92.9% | activity at 0.001 µM (granulocytes (Gran-lin); dose 1 nM, 6 days, normalized to vehicle control, read-out: Gran normalized cell count): 98.1% | activity at 0.005 µM (granulocytes (Gran-lin); dose 5 nM, 6 days, normalized to vehicle control, read-out: Gran normalized cell count): 109% | activity at 0.025 µM (granulocytes (Gran-lin); dose 25 nM, 6 days, normalized to vehicle control, read-out: Gran normalized cell count): 74.6% | activity at 0.1 µM (granulocytes (Gran-lin); dose 100 nM, 6 days, normalized to vehicle control, read-out: Gran normalized cell count): 50.7% | activity at 0.5 µM (granulocytes (Gran-lin); dose 500 nM, 6 days, normalized to vehicle control, read-out: Gran normalized cell count): 23.7% | activity at 2.5 µM (granulocytes (Gran-lin); dose 2500 nM, 6 days, normalized to vehicle control, read-out: Gran normalized cell count): 6.7% | Emax (granulocytes (Gran-lin); parameter from QSP model fitting, read-out: Emax_drug_Gran): 0.0359% | activity at 0.0002 µM ([1]; dose 0.2 nM, 6 days, normalized to vehicle control, read-out: LymP normalized cell count): 87.8% | activity at 0.001 µM ([1]; dose 1 nM, 6 days, normalized to vehicle control, read-out: LymP normalized cell count): 95.2% | activity at 0.005 µM ([1]; dose 5 nM, 6 days, normalized to vehicle control, read-out: LymP normalized cell count): 100% | activity at 0.025 µM ([1]; dose 25 nM, 6 days, normalized to vehicle control, read-out: LymP normalized cell count): 61.7% | activity at 0.1 µM ([1]; dose 100 nM, 6 days, normalized to vehicle control, read-out: LymP normalized cell count): 39.1% | activity at 0.5 µM ([1]; dose 500 nM, 6 days, normalized to vehicle control, read-out: LymP normalized cell count): 17.4% | activity at 2.5 µM ([1]; dose 2500 nM, 6 days, normalized to vehicle control, read-out: LymP normalized cell count): 4.31% | Emax ([1]; parameter from QSP model fitting, read-out: Emax_drug_LymP): 0.032% | viability at 0.0002 µM ([2]; dose 0.2 nM): 90% | viability at 0.001 µM ([2]; dose 1 nM): 97.8% | viability at 0.005 µM ([2]; dose 5 nM): 106% | viability at 0.025 µM ([2]; dose 25 nM): 79.4% | viability at 0.1 µM ([2]; dose 100 nM): 66.6% | viability at 0.5 µM ([2]; dose 500 nM): 42.1% | viability at 2.5 µM ([2]; dose 2500 nM): 17.8% | activity at 0.0002 µM ([3]; dose 0.2 nM, 6 days, normalized to vehicle control, read-out: MPPs normalized cell count): 81.4% | activity at 0.001 µM ([3]; dose 1 nM, 6 days, normalized to vehicle control, read-out: MPPs normalized cell count): 91.9% | activity at 0.005 µM ([3]; dose 5 nM, 6 days, normalized to vehicle control, read-out: MPPs normalized cell count): 83.8% | activity at 0.025 µM ([3]; dose 25 nM, 6 days, normalized to vehicle control, read-out: MPPs normalized cell count): 63.7% | activity at 0.1 µM ([3]; dose 100 nM, 6 days, normalized to vehicle control, read-out: MPPs normalized cell count): 46.9% | activity at 0.5 µM ([3]; dose 500 nM, 6 days, normalized to vehicle control, read-out: MPPs normalized cell count): 28.4% | activity at 2.5 µM ([3]; dose 2500 nM, 6 days, normalized to vehicle control, read-out: MPPs normalized cell count): 16.9% | Emax ([3]; parameter from QSP model fitting, read-out: Emax_drug_MPP): 0.0237% | EC50 ([4]; QSP model fit of 6-day MLTA data, read-out: EC50ErythII): 222 nM | activity at 0.0002 µM ([4]; dose 0.2 nM, 6 days, normalized to vehicle control, read-out: ErythII normalized cell count): 84.3% | activity at 0.001 µM ([4]; dose 1 nM, 6 days, normalized to vehicle control, read-out: ErythII normalized cell count): 97.7% | activity at 0.005 µM ([4]; dose 5 nM, 6 days, normalized to vehicle control, read-out: ErythII normalized cell count): 113% | activity at 0.025 µM ([4]; dose 25 nM, 6 days, normalized to vehicle control, read-out: ErythII normalized cell count): 81.4% | activity at 0.1 µM ([4]; dose 100 nM, 6 days, normalized to vehicle control, read-out: ErythII normalized cell count): 79.8% | activity at 0.5 µM ([4]; dose 500 nM, 6 days, normalized to vehicle control, read-out: ErythII normalized cell count): 66.7% | activity at 2.5 µM ([4]; dose 2500 nM, 6 days, normalized to vehicle control, read-out: ErythII normalized cell count): 33.6% | Emax ([4]; parameter from QSP model fitting, read-out: Emax_drug_ErythroidII): 10.8% | activity at 0.0002 µM ([5]; dose 0.2 nM): 117% | activity at 0.001 µM ([5]; dose 1 nM): 117% | activity at 0.005 µM ([5]; dose 5 nM): 129% | activity at 0.025 µM ([5]; dose 25 nM): 81.1% | activity at 0.1 µM ([5]; dose 100 nM): 60% | activity at 0.5 µM ([5]; dose 500 nM): 32.1% | activity at 2.5 µM ([5]; dose 2500 nM): 27.8% | EC50 [6, 7]: 141 nM | activity at 0.0002 µM ([6]; dose 0.2 nM, 6 days, normalized to vehicle control, read-out: GMPs normalized cell count): 91.2% | activity at 0.001 µM ([6]; dose 1 nM, 6 days, normalized to vehicle control, read-out: GMPs normalized cell count): 92.5% | activity at 0.005 µM ([6]; dose 5 nM, 6 days, normalized to vehicle control, read-out: GMPs normalized cell count): 103% | activity at 0.025 µM ([6]; dose 25 nM, 6 days, normalized to vehicle control, read-out: GMPs normalized cell count): 85% | activity at 0.1 µM ([6]; dose 100 nM, 6 days, normalized to vehicle control, read-out: GMPs normalized cell count): 73.4% | activity at 0.5 µM ([6]; dose 500 nM, 6 days, normalized to vehicle control, read-out: GMPs normalized cell count): 54.4% | activity at 2.5 µM ([6]; dose 2500 nM, 6 days, normalized to vehicle control, read-out: GMPs normalized cell count): 29.5% | EC50 (MK cells (MK-lin); [7]): 2040 nM | activity at 0.0002 µM (MK cells (MK-lin); dose 0.2 nM, 6 days, normalized to vehicle control, read-out: MK normalized cell count): 102% | activity at 0.001 µM (MK cells (MK-lin); dose 1 nM, 6 days, normalized to vehicle control, read-out: MK normalized cell count): 98.3% | activity at 0.005 µM (MK cells (MK-lin); dose 5 nM, 6 days, normalized to vehicle control, read-out: MK normalized cell count): 91.7% | activity at 0.025 µM (MK cells (MK-lin); dose 25 nM, 6 days, normalized to vehicle control, read-out: MK normalized cell count): 83.6% | activity at 0.1 µM (MK cells (MK-lin); dose 100 nM, 6 days, normalized to vehicle control, read-out: MK normalized cell count): 101% | activity at 0.5 µM (MK cells (MK-lin); dose 500 nM, 6 days, normalized to vehicle control, read-out: MK normalized cell count): 64.4% | activity at 2.5 µM (MK cells (MK-lin); dose 2500 nM, 6 days, normalized to vehicle control, read-out: MK normalized cell count): 27.7% | Emax (MK cells (MK-lin); parameter from QSP model fitting, read-out: Emax_drug_MK): 4.81%
